Laboratory results reported in US20100137315A1, “Sphingosine Kinase Inhibitors and Methods of Their Use” (APOGEE BIOTECHNOLOGY CORPORATION, priority 2005, published 2010).

Columns and labels:
[1] = test system: endogenous SK in MDA-MB-231 human breast carcinoma cells; test: Intact cell assay of endogenous SK ([3H]sphingosine to [3H]S1P); assay type: cell-based; details: MDA-MB-231 cells, 20 μg/ml compound
Experimental: We have previously described an intact cell assay where, following treatment with a test compound, MDA-MB-231 human breast carcinoma cells are incubated with [^3H]sphingosine at a final concentration of 1 μM (French et al., 2003, Cancer Res 63: 5962). The cells take up the exogenous [^3H]sphingosine and convert it to [^3H]S1P through the action of endogenous SK. The resulting [^3H]S1P is isolated via charge-based separation as indicated above. […] For potency studies, MDA-MB-231 cells were exposure to varying concentrations of a test Compound and then assayed for conversion of [^3H]sphingosine to [^3H]S1P.

recombinant human SK [2] = molecular target: T1, recombinant human SK (Homo sapiens, UniProt Q9NYA1); test: Inhibition of recombinant human SK, LC/MS/MS assay; assay type: biochemical; details: 6 μg/ml compound
T1 construct: glutathione-S-transferase (GST) (N); made in house; host or cells: bacteria (pGEX vector)
T1 sequence (Q9NYA1 whole entry): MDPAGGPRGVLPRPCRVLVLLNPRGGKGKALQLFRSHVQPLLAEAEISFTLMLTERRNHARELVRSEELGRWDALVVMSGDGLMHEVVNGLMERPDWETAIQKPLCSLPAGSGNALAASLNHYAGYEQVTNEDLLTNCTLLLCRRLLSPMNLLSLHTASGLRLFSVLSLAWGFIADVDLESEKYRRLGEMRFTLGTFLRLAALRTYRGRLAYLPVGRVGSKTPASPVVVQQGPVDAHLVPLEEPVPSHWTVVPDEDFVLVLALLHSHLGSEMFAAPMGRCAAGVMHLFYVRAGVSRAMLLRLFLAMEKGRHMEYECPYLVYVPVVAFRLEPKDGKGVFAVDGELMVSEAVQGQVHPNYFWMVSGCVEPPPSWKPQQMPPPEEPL
Experimental: (§1) An assay for identifying inhibitors of recombinant human SK has been established (French et al., 2003, Cancer Res 63: 5962). cDNA for human SK was subcloned into a pGEX bacterial expression vector, which results in expression of the enzyme as a fusion protein with glutathione-S-transferase, and the fusion protein is then purified on a column of immobilized glutathione. SK activity is measured by incubation of the recombinant SK with [^3H]sphingosine and 1 mM ATP under defined conditions, followed by extraction of the assay mixture with chloroform:methanol under basic conditions. […] Radioactivity in aliquots of the aqueous phase is then quantified as a measure of [^3H]S1P formation. There is a low background level of partitioning of [^3H]sphingosine into the aqueous phase, and addition of the recombinant SK greatly increases the formation of [^3H]S1P.
In an alternate assay procedure, the recombinant human SK was incubated with unlabeled sphingosine and ATP as described above. After 30 minutes, the reactions were terminated by the addition of acetonitrile to directly extract the newly synthesized S1P. The amount of S1P in the samples is then quantified as follows. C17 base D-erythro-sphingosine and C17 S1P are used as internal standards for sphingosine and S1P, respectively. These seventeen-carbon fatty acid-linked sphingolipids are not naturally produced, making these analogs excellent standards. The lipids are then fractionation by High-Performance Liquid Chromatography using a C8-reverse phase column eluted with 1 mM methanolic ammonium formate/2 mM aqueous ammonium formate. A Finnigan LCQ Classic LC-MS/MS is used in the multiple reaction monitoring positive ionization mode to acquire ions at m/z of 300 (precursor ion)→282 (product ion) for sphingosine and 380→264 for S1P. Calibration curves are generated by plotting the peak area ratios of the synthetic standards for each sphingolipid, and used to determine the normalized amounts of sphingosine and S1P in the samples.
Each Compound of this invention was tested for its ability to inhibit recombinant SK using the LC/MS/MS assay described above. Typically, the Compounds were individually dissolved in dimethylsulfoxide and tested at a final concentration of 6 micrograms/ml.

[3] = test system: MCF-7 human breast adenocarcinoma cells; test: Cytotoxicity, SRB assay, 48 h; assay type: cell-based; details: Homo sapiens, MCF7; Table 6; 48 h, SRB, inhibition of cell proliferation; read-out: MCF-7 IC50
Experimental: To further assess the biological efficacies of the Compounds in intact cells, each Compound was evaluated for cytotoxicity using human cancer cell lines. These experiments followed methods that have been extensively used. Cell lines tested included MCF-7 human breast adenocarcinoma cells. The indicated cell lines were treated with varying doses of the test Compound for 48 h. Cell survival was then determined using the SRB binding assay (Skehan et al., 1990, J Natl Cancer Inst 82: 1107), and the concentration of compound that inhibited proliferation by 50% (the IC50) was calculated. Values (in μM) represent the mean±sd for replicate trials.

recombinant human SK [4] = molecular target: T1, recombinant human SK; test: Recombinant human SK assay with [3H]sphingosine; assay type: biochemical; details: positive control
Experimental: as §1

| inhibition at 6 µg/mL (recombinant human SK [2]) | SMILES | Cellular S1P (% inhibition) [1] | IC50 [3] | concentrations at which SK activity is completely inhibited (recombinant human SK [4]) |
| --- | --- | --- | --- | --- |
| 73% | CCCC(=O)Oc1ccc(C=CC(=O)Nc2nc(-c3ccc(Cl)cc3)cs2)cc1 [Compound 15, Butyric acid 4-{2-[4-(4-chloro-phenyl)-thiazol-2-ylcarbamoyl]-vinyl}-phenyl ester] | – | 2.9 µM | – |
| 0% | CCCC(=O)Oc1ccc(CCC(=O)Nc2nc(-c3ccc(Cl)cc3)cs2)cc1OC [Compound 29, Butyric acid 4-{2-[4-(4-chloro-phenyl)-thiazol-2-ylcarbamoyl]-ethyl}-2-methoxy-phenyl ester] | – | 26 µM | – |
| 0% | CCCC(=O)Oc1ccc(CC(=O)Nc2nc(-c3ccc(Cl)cc3)cs2)cc1[N+](=O)[O-] [Compound 30, Butyric acid 4-{[4-(4-chloro-phenyl)-thiazol-2-ylcarbamoyl]-methyl}-2-nitro-phenyl ester] | – | 32 µM | – |

The next lines start with the compound.

| SMILES | inhibition at 6 µg/mL (recombinant human SK [2]) | Cellular S1P (% inhibition) [1] | IC50 [3] | concentrations at which SK activity is completely inhibited (recombinant human SK [4]) |
| --- | --- | --- | --- | --- |
| CCCCCCCCCCCCCCCC(=O)Nc1nc(-c2ccc(Cl)cc2)cs1 [Compound 3, Hexadecanoic acid [4-(4-chloro-phenyl)-thiazol-2-yl]-amide] | 88% | 34% | 111 µM | – |
| O=C(NCc1ccncc1)c1nc(-c2ccc(Cl)cc2)cs1 [Compound 34, 4-(4-Chloro-phenyl)thiazole-2-carboxylic acid (pyridin-4-ylmethyl)amide] | 0% | – | 38 µM | – |
| CN(C)c1ccc(CNC(=O)c2nc(-c3ccc(Cl)cc3)cs2)cc1 [Compound 35, 4-(4-Chloro-phenyl)-thiazole-2-carboxylic acid 4-dimethylamino-benzylamide] | 80% | – | 130 µM | – |
| Clc1ccc(-c2csc(N(CCCc3ccccc3)CCCc3ccccc3)n2)cc1 [Compound 71, [4-(4-Chloro-phenyl)-thiazol-2-yl]-bis-(3-phenyl-propyl)-amine] | 44% | – | 111 µM | – |
| Clc1ccc(-c2csc(N(Cc3ccccc3)Cc3ccccc3)n2)cc1 [Compound 72, Dibenzyl-[4-(4-chloro-phenyl)-thiazol-2-yl]-amine] | 79% | – | 127 µM | – |
| O=C(Nc1nc2cc(Cl)ccc2o1)c1cccc(F)c1 [Compound 97, N-(5-Chloro-benzooxazol-2-yl)-3-fluoro-benzamide] | 71% | – | 1.7 µM | – |
| CCCCCCCCCCCCC/C=C/[C@@H](O)[C@H](CO)N(C)C [DMS, D-erythro-N,N-dimethylsphingosine] | – | – | – | above 25 μM |
